Consider six compounds from publication PMC6539903 (Molecules, 2019).

The subject of one data set is A549. Kind of data set: MTT antiproliferation assay, A549. In kind it is cell-based. The note with it: Homo sapiens, 48 h, n = 3, read-out: IC50 ± SD A549. As for the experimental part: (§1) MCF-7 (human breast cell line), HeLa (human cervical cell line), A549 (human lung cell line), HepG2 (human liver cell line), SW620 (human colorectal cell line) and a non-cancer cell line, NCM460 (Human colonic epithelial cells) were preserved at the State Key Laboratory of Pharmaceutical Biotechnology, Nanjing University (Nanjing, China).
(§2) The antiproliferative activity of the synthetic compounds against the SW620, MCF-7, HeLa, A549, HepG2, and NUM460 cell lines was evaluated by a colorimetric assay based on a modified standard (MTT). […] Thereafter, MTT (5 mg/mL in PBS) was added to each well and incubated for 4 h. 150 μL of DMSO was added to each well and shaken with a shaker. The absorbance (OD 570 nm) was read at 630 nm on an ELISA reader (ELx800, BioTek, montpelier, VT, USA). IC50 values for the compounds were calculated by comparison to DMSO treated control wells. Three replicate wells were used for each drug concentration. Each assay was performed three times.
A general note: Tetrazolium assays rely on reduction of a dye to a coloured formazan, in cell work by metabolically active cells.

The next data set has as its target T1, COX-1 (Homo sapiens, UniProt P23219).
T1 construct: purchased Cayman Chemical 701170
Kind of data set: COX-1 inhibition assay (COX-1 ELISA kit). In kind it is biochemical. The note with it: mean of four determinations; read-out: IC50 ± SD COX-1. As for the experimental part: (§3) 3-(4,5-Dimethylthiazol-2-yl)-2,5-diphenyltetrazolium (MTT) were purchased from Beyotime Institute of Biotechnology (Haimen, China). Annexcin V-FITC cell apoptosis assay kit (catalog No.BA11100) was purchased from BIO-BOX (Nanjing, China). Fibronectin (#F1056) and laminin (#L2020) were purchased from Sigma-Aldrich (St. Louis, MO, USA).
(§4) Then 1 M HCl was added to the reaction mixture to stop the reaction, and one-tenth of the volume of saturated stannous chloride (50 mg/mL) was added. The reaction mixture was incubated at room temperature for 5 min, and PGF2 and PGH2 were produced.
For orientation: An ELISA detects its analyte on a solid surface through an enzyme-linked reagent.

Data set [1] can be described thus: MTT cytotoxicity assay, non-cancer colon cells. Type of data set: cell-based. The note with it: human, NCM460 colonic epithelial cells (non-cancer cell line), n = 3, non-cancer cell line, read-out: CC50 ± SD NUM460. As for the experimental part: Besides, the MTT assay was performed on a non-cancer line NCM460 to assess the cytotoxicity of the test compound to normal colon cells.
as §1, §2

Another data set has as its target T2, COX-2 (Homo sapiens, UniProt P35354).
T2 construct: purchased Cayman Chemical 701180
T2 sequence (P35354 18-604): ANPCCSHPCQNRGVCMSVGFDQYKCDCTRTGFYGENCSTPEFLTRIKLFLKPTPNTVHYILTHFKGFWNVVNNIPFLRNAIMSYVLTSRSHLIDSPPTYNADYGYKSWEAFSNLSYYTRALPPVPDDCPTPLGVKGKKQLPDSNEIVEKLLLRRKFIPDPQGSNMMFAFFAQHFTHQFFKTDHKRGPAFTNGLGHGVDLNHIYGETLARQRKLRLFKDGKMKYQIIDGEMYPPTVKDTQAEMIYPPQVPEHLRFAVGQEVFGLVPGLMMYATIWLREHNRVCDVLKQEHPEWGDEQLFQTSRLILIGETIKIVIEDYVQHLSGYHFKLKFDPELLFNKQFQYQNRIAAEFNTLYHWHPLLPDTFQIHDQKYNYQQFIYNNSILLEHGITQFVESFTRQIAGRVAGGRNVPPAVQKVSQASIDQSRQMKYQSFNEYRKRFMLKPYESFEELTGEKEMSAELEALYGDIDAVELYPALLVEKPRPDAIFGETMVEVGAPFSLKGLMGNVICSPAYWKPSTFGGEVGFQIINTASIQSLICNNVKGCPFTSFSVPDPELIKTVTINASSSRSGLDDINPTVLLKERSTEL
The data set is described as follows: COX-2 inhibition assay (COX-2 ELISA kit). Type of data set: biochemical. Conditions: for Selectivity Index (SI) (COX-1 IC50/COX-2 IC50): in vitro COX-2 selectivity index; for IC50: mean of four determinations, read-out: IC50 ± SD COX-2. How it is done:
as §3, §4

Another data set concerns HeLa. The data set is described as follows: MTT antiproliferation assay, HeLa. Type of data set: cell-based. Conditions: Homo sapiens, 48 h, n = 3, read-out: IC50 ± SD HeLa. As for the experimental part:
as §1, §2

The subject of another data set is SW620 cells. The data set is described as follows: MTT antiproliferation assay, SW620. In kind it is cell-based. The note with it: Homo sapiens, SW-620, 48 h, n = 3, read-out: IC50 ± SD SW620. How it is done: as §1, §2
The subject of a further data set is HepG2. The data set is described as follows: MTT antiproliferation assay, HepG2. In kind it is cell-based. The note with it: Homo sapiens, 48 h, n = 3, read-out: IC50 ± SD HepG2. As for the experimental part:
as §1, §2

The test system of a further data set is MCF-7. Kind of data set: MTT antiproliferation assay, MCF-7. In kind it is cell-based. Conditions: Homo sapiens, MCF7, 48 h, n = 3, read-out: IC50 ± SD MCF-7. How it is done: as §1, §2

T1 sequence (P23219 24-599): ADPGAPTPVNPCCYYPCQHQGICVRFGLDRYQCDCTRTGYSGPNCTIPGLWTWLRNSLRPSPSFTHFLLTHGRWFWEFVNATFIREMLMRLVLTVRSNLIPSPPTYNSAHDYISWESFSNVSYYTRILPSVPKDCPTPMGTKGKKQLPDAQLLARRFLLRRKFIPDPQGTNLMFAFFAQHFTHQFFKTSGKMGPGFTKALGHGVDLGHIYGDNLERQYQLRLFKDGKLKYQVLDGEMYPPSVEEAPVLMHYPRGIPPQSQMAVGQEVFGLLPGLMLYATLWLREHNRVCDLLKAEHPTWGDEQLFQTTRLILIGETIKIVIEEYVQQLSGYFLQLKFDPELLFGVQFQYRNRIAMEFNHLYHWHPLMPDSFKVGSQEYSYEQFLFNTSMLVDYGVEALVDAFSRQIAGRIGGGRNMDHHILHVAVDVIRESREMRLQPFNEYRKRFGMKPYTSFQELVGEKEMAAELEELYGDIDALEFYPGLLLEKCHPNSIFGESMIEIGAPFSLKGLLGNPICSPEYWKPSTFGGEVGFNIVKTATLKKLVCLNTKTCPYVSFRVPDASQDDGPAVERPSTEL

As usually defined, the IC50 is the midpoint of a concentration-inhibition curve. Usually melting point stands for the temperature of the solid-liquid transition. A word on the CC50: it is the concentration giving 50% cytotoxicity. Compound `NS(=O)(=O)c1ccc(N2N=C(c3ccc(Cl)cc3)CC2c2ccc3c(c2)OCCO3)cc1` (stereo not shown) [Compound 4p, 4-(3-(4-Chlorophenyl)-5-(2,3-dihydrobenzo[b][1,4]dioxin-6-yl)-4,5-dihydro-1H-pyrazol-1-yl)benzenesulfonamide] yielded a melting point of 146 to 148 °C. In the data set with A549, the half-maximal inhibitory concentration (IC50) was found to be 3.83 ± 0.26 µM. Also, the IC50 on COX-1 was 37.32 ± 0.18 µM. Moreover, in [1], the CC50 at 48 h was 94.7 ± 3.65 µM. For the same compound, on COX-2, the “Selectivity Index (SI) (COX-1 IC50/COX-2 IC50)” value is listed as 26.46 and the IC50 turned out to be 1.41 ± 0.07 µM. In addition, the half-maximal inhibitory concentration (IC50) in the data set with HeLa was 6.58 ± 0.49 µM. In addition, the IC50 with SW620 cells stood at 3.53 ± 0.16 µM. In the data set on HepG2, the IC50 came out at 8.16 ± 0.63 µM. The IC50 in the data set with MCF-7 stood at 5.99 ± 0.38 µM.
Compound `NS(=O)(=O)c1ccc(N2N=C(c3ccc(Br)cc3)CC2c2ccc3c(c2)OCCO3)cc1` (stereo not shown) [Compound 4q, 4-(3-(4-Bromophenyl)-5-(2,3-dihydrobenzo[b][1,4]dioxin-6-yl)-4,5-dihydro-1H-pyrazol-1-yl)benzenesulfonamide] showed a melting point of 153 to 154 °C. Besides, the IC50 in the data set on A549 is 3.14 ± 0.25 µM. The IC50 at COX-1 was found to be 26.64 ± 0.26 µM. Further, the CC50 at 48 h in data set [1] worked out at 80.3 ± 8.01 µM. Further, on COX-2, the “Selectivity Index (SI) (COX-1 IC50/COX-2 IC50)” value is reported as 20.98 and the IC50 turned out to be 1.27 ± 0.03 µM. The IC50 in the data set with HeLa stood at 5.96 ± 0.39 µM. Besides, in the data set with SW620 cells, the IC50 is 3.18 ± 0.19 µM. Besides, the IC50 in the data set with HepG2 amounted to 6.92 ± 0.28 µM. Moreover, the IC50 in the data set with MCF-7 amounted to 5.47 ± 0.29 µM.
`NS(=O)(=O)c1ccc(N2N=C(c3ccc(I)cc3)CC2c2ccc3c(c2)OCCO3)cc1` (stereo not shown) [Compound 4r, 4-(5-(2,3-Dihydrobenzo[b][1,4]dioxin-6-yl)-3-(4-iodophenyl)-4,5-dihydro-1H-pyrazol-1-yl)benzenesulfonamide] displayed a melting point of 187 to 189 °C. Besides, the IC50 in the data set on A549 was 3.12 ± 0.08 µM. The IC50 at COX-1 came out at 41.18 ± 0.17 µM. Moreover, the CC50 at 48 h in [1] worked out at 38 ± 1.19 µM. Also, the “Selectivity Index (SI) (COX-1 IC50/COX-2 IC50)” value on COX-2 is 47.33. In addition, the IC50 with HeLa worked out at 4.14 ± 0.21 µM. Moreover, the IC50 with SW620 cells amounted to 2.17 ± 0.05 µM. Besides, the IC50 in the data set with HepG2 stood at 3.28 ± 0.17 µM. The IC50 with MCF-7 stood at 3.95 ± 0.18 µM.
Compound `Cc1cccc(C2=NN(c3ccc(S(N)(=O)=O)cc3)C(c3ccc4c(c3)OCO4)C2)c1` (stereo not shown) [Compound 4e, 4-(5-(Benzo[d][1,3]dioxol-5-yl)-3-(m-tolyl)-4,5-dihydro-1H-pyrazol-1-yl)benzenesulfonamide] showed a melting point of 187 to 188 °C. The IC50 with A549 turned out to be 4.54 ± 0.18 µM. In addition, at COX-1, the IC50 came out at 29.77 ± 0.23 µM. The CC50 at 48 h in data set [1] turned out to be 110 ± 7.71 µM. In addition, on COX-2, the “Selectivity Index (SI) (COX-1 IC50/COX-2 IC50)” value worked out at 19.20 and the IC50 is 1.55 ± 0.06 µM. Moreover, in the data set with HeLa, the IC50 turned out to be 7.22 ± 0.65 µM. Further, the IC50 with SW620 cells was 3.88 ± 0.36 µM. In addition, the IC50 in the data set with HepG2 was found to be 9.44 ± 0.74 µM. Also, in the data set with MCF-7, the IC50 was determined as 6.52 ± 0.46 µM.
`COc1ccc(C2=NN(c3ccc(S(N)(=O)=O)cc3)C(c3ccc4c(c3)OCCO4)C2)cc1` (stereo not shown) [Compound 4m, 4-(5-(2,3-Dihydrobenzo[b][1,4]dioxin-6-yl)-3-(4-methoxyphenyl)-4,5-dihydro-1H-pyrazol-1-yl)benzenesulfonamide] displayed a melting point of 207 to 208 °C. Moreover, the IC50 with A549 worked out at 4.54 ± 0.29 µM. The IC50 on COX-1 is more than 60 µM. In addition, the CC50 at 48 h in data set [1] amounted to 110 ± 7.42 µM. In addition, on COX-2, the “Selectivity Index (SI) (COX-1 IC50/COX-2 IC50)” value is given as more than 39.47 and the IC50 was found to be 1.52 ± 0.09 µM. Besides, the IC50 with HeLa stood at 7.22 ± 0.19 µM. For the same compound, the IC50 in the data set with SW620 cells stood at 3.88 ± 0.37 µM. In the data set on HepG2, the IC50 was 9.44 ± 0.77 µM. In the data set on MCF-7, the IC50 stood at 6.52 ± 0.33 µM.
Take `Cc1ccc(C2=NN(c3ccc(S(N)(=O)=O)cc3)C(c3ccc4c(c3)OCCO4)C2)cc1` (stereo not shown) [Compound 4l, 4-(5-(2,3-Dihydrobenzo[b][1,4]dioxin-6-yl)-3-(p-tolyl)-4,5-dihydro-1H-pyrazol-1-yl)benzenesulfonamide]: the melting point was 153 to 154 °C. Further, the IC50 in the data set with A549 was 2.58 ± 0.18 µM. On COX-1, the IC50 is 43.87 ± 0.37 µM. The CC50 at 48 h in data set [1] was 68.7 ± 5.28 µM. Also, the “Selectivity Index (SI) (COX-1 IC50/COX-2 IC50)” value at COX-2 came out at 46.67. Also, the 50% inhibitory concentration (IC50) with HeLa is 4.46 ± 0.36 µM. The IC50 in the data set on SW620 cells was found to be 2.35 ± 0.11 µM. Moreover, in the data set on HepG2, the IC50 was 5.92 ± 0.39 µM. Moreover, in the data set with MCF-7, the IC50 worked out at 4.22 ± 0.16 µM.
